Data as given in patent publication US7625713B2, “Process for identifying a ligand that binds to the NEP binding site for the SMR1 pentapeptide” (Institut Pasteur, priority 2000, dated 2009).
Where a SMILES comes first, the peptide text is derived from it.

Key:
male SPF Wistar/AF rats = experiment: Aversive light stimulus avoidance test (ALSAT); format: in vivo, rat; details: 50 μg/kg, I.V.; for Total number of times the two levers were pressed / Number of times AL pressed / Number of times IL pressed: mean ± SEM; for Number of times AL pressed: active lever; for Number of times IL pressed: inactive lever
Protocol: Twenty four male SPF Wistar/AF rats weighing from 300 to 320 g were used. Upon reception, the rats were weighed, marked and distributed, in groups of 3, into F-type polycarbonate cages. The animals were housed in an air-conditioned animal house at a temperature of 22-24° C. Food and drink was available to the rats ad libitum. They were subjected to a 12-hour light/dark cycle (light from 8 pm to 8 am).
After a period of familiarization with the laboratory conditions of one week, the 24 rats were randomly divided into 2 groups (n=12). The rats from the various groups were all handled in the same way and under the same conditions.
The rat is placed in the cage for 20 minutes and the number of times each lever is pressed is counted during the experiment.
This model uses the aversion of the rat to a brightly lit environment. During the familiarization session and the learning session, the rat learns to control the aversive light environment of the test device in the context of operant conditioning: the animal learns to press the active lever in order to obtain periods of darkness.
The learning test is made up over two sessions: • Session 1, familiarization with the experimental device (day 1); • Session 2, learning test (day 2).
The QHNPR (SEQ ID NO: 2) peptide is suspended in a proportion of 500 μg per 5 ml of 0.01 N acetic acid, and then diluted with PBS in order to be administered at the dose of 50 μg/kg, via the i.v. route, in the dorsal caudal vein of the rat, 1 minute before the test.
A two-sided probability unpaired t-test was used to compare the lever-pressing activity of the two groups of rats.
The results are expressed as mean±standard error of the mean (SEM).

NEP = target: T1, NEP (Rattus norvegicus, UniProt P07861); experiment: Kinetic analysis of inhibition of substance P catabolism by rat renal membranes; format: biochemical
T1 construct: peripheral tissue membrane preparations that are known to be enriched in NEP-peptidase; from tissue; host or cells: rat renal outer medulla/kidney, intestine mucosa, placenta, prostate, dental and bone tissues, submandibular gland (membrane preparations)
T1 sequence (P07861 2-750): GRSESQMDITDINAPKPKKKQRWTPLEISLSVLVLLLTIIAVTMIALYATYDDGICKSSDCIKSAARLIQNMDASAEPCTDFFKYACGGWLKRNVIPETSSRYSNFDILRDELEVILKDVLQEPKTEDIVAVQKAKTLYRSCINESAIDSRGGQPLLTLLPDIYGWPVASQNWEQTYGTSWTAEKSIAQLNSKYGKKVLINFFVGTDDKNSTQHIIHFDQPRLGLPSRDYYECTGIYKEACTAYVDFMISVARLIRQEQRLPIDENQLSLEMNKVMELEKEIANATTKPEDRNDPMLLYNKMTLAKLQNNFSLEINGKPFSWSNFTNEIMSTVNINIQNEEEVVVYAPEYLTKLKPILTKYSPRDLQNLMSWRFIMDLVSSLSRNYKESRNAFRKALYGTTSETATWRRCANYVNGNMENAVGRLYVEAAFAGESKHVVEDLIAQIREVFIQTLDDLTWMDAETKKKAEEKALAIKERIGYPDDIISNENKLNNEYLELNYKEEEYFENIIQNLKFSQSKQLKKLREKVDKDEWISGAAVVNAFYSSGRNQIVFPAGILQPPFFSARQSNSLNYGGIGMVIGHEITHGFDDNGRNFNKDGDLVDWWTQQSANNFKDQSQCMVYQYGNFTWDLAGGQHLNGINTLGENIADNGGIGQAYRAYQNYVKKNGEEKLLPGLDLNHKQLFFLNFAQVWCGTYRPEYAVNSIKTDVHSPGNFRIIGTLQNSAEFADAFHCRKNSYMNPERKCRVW
Protocol: The inhibitory potency of sialophin was measured by using substance P as substrate at concentrations indicated for A and B, and at 14-24 nM (blank triangle) or 56-105 nM (black triangle) for FIG. 5-C. Concentrations of inhibitor for FIG. 5-A and FIG. 5-B were 0 (black circles), 1500 (blank circle) and 4500 nM (blank diamond). Each point of the untransformed and double reciprocal plots represents the mean of 2 independent determinations of duplicate. Experiments were performed at 25° C. in 250 μl Tris-HCl buffer (50 mM pH 7.4) under initial velocity measurement conditions.
In order to determine inhibitor modality, all the measures of initial velocity of the renal enzymatic reaction were plotted versus substrate concentration for several fixed inhibitor concentrations or versus inhibitor concentration for fixed substrate concentrations.

[1] = target: T2, purified rabbit renal NEP (Oryctolagus cuniculus, UniProt P08049); experiment: Substance P catabolism by purified rabbit renal NEP; format: biochemical; details: substance P as substrate, read-out: inhibition of substance P catabolism by the soluble enzyme
T2 construct: purified rabbit renal NEP; from tissue; host or cells: rabbit kidney (purified enzyme)
T2 sequence (P08049 1-750): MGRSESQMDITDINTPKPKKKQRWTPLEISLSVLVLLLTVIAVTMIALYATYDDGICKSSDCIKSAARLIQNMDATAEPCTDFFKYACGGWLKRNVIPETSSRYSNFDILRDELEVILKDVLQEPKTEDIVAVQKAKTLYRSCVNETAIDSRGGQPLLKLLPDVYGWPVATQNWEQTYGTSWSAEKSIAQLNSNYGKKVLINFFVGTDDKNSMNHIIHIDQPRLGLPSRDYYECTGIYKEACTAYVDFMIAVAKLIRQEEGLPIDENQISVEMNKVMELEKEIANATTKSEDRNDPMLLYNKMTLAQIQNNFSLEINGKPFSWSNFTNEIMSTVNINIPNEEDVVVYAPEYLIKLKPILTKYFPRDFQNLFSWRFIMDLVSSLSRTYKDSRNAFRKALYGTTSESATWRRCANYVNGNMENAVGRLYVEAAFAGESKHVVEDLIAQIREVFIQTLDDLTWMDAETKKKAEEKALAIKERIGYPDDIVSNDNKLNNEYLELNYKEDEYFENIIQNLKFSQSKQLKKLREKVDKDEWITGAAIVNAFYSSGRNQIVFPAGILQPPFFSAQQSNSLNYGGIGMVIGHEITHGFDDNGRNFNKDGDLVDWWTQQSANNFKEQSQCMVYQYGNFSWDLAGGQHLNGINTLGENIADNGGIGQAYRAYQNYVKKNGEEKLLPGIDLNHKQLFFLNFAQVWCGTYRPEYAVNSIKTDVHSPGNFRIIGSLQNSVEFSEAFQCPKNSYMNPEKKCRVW

`N=C(N)NCCC[C@H](NC(=O)[C@@H]1CCCN1C(=O)[C@H](CC(N)=O)NC(=O)[C@H](Cc1c[nH]cn1)NC(=O)[C@@H](N)CCC(N)=O)C(=O)O` [sialorphin, Gln-His-Asn-Pro-Arg] (H-QHNPR-OH; N-terminus and C-terminus assumed) was tested, and the “Total number of times the two levers were pressed” value (male SPF Wistar/AF rats; Session 1, 1 minute before the test) was 10.08 ± 1.98, the “Number of times AL pressed” value (male SPF Wistar/AF rats; Session 1) was 4.83 ± 1.02 and the “Number of times IL pressed” value (male SPF Wistar/AF rats; Session 1) was 5.25 ± 1.14. For the same compound, the “Number of times AL pressed” value (male SPF Wistar/AF rats; Session 2) was 2.67 ± 0.47, the “Number of times IL pressed” value (male SPF Wistar/AF rats; Session 2) was 2.58 ± 0.94 and the “Total number of times the two levers were pressed” value (male SPF Wistar/AF rats; Session 2) was 5.25 ± 5.09. For the same compound, the “Distinction between the levers” value (male SPF Wistar/AF rats; both test sessions) was “no distinction between the two levers”, the “raising of the apparent Km of the enzyme for substrate” value (NEP; 0, 1500 and 4500 nM inhibitor, substance P substrate, rat renal membranes) was 2-5 fold and the inhibitor modality (NEP; untransformed, double-reciprocal and Dixon plots, [3H] substance P, renal membrane, 25° C.) was “competitive inhibition”. For the same compound, the inhibition at 5 µM [1] was 46%.
